Source: US6133319A, “IL-8 receptor antagonists” (SmithKline Beecham Corporation, priority 1999, dated 2000)

Molecular target: T1, recombinant human IL-8 type b receptor (IL-8 Rb, Type II, permissive receptor) (Homo sapiens, UniProt P25025)
T1 sequence (P25025 1-360): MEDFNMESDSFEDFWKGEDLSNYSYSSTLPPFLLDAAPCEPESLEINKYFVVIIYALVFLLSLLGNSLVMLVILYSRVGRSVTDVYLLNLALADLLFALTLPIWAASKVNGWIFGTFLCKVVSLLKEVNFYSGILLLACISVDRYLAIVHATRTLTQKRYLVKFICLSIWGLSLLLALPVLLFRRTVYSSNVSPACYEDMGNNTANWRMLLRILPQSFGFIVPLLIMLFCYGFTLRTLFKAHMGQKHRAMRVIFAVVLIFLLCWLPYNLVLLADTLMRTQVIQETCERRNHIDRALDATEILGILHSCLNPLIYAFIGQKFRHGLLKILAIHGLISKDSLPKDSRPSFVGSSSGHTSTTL
Assay: Receptor binding assay, [125I] IL-8 binding to IL-8 Rb (Type II, permissive) receptor membranes
Settings: recombinant IL-8 Rb (Type II) CHO membranes
Protocol: The IL-8, and Gro-a chemokine inhibitiory effects of compounds of the present invention were determined by the following in vitro assay:
[^125 I] IL-8 (human recombinant) was obtained from Amersham Corp., Arlington Heights, Ill., with specific activity 2000 Ci/mmol. Gro-a was obtained from NEN- New England Nuclear. All other chemicals were of analytical grade. High levels of recombinant human IL-8 type a and b receptors were individually expressed in Chinese hamster ovary cells as described previously (Holmes, et al., Science, 1991, 253, 1278). The Chinese hamster ovary membranes were homogenized according to a previously described protocol (Haour, et al., J Biol Chem., 249 pp 2195-2205 (1974)). Except that the homogenization buffer was changed to 10 mM Tris-HCl, 1 mM MgS04, 0.5 mM EDTA (ethylene-diaminetetraacetic acid), 1 mM PMSF (a-toulenesulphonly flouride), 0.5 mg/L Leupeptin, pH 7.5. Membrane protein concentration was determined using Pierce Co. micro-assay kit using bovine serum albumin as a standard. All assays were performed in a 96-well micro plate format. Each reaction mixture contained ^125 I IL-8 (0.25 nM) or ^125 I Gro-a and 0.5 μg/mL of IL-8Ra or 1.0 μg/mL of IL-8Rb membranes in 20 mM Bis-Trispropane and 0.4 mM Tris HCl buffers, pH 8.0, containing 1.2 mM MgSO4, 0.1 mM EDTA, 25 mM NaCl and 0.03% CHAPS. In addition, drug or compound of interest was added which had been pre-dissolved in DMSO so as to reach a final concentration of between 0.01 nM and 100 uM. The assay was initiated by addition of ^125 I-IL-8. After 1 hour at room temperature the plate was harvested using a Tomtec 96-well harvester onto a glass fiber filtermat blocked with 1% polyethylenimine/0.5% BSA and washed 3 times with 25 mM NaCl, 10 mM TrisHCl, 1 mM MgSO4, 0.5 mM EDTA, 0.03% CHAPS, pH 7.4. The filter was then dried and counted on the Betaplate liquid scintillation counter. The recombinant IL-8 Ra, or Type I, receptor is also referred to herein as the non-permissive receptor and the recombinant IL-8 Rb, or Type II, receptor is referred to as the permissive receptor.

Row | Compound | activity in the permissive models for IL-8 receptor inhibition (result in words)
1 | N#Cc1ccc(NC(=O)N[C@@H]2CCCC[C@H]2OCc2ccccc2)c(NS(=O)(=O)c2ccccc2)c1 (relative stereo) [N-trans-(2-benzyloxycyclohexyl)-N'-((2-benzenesulfonylamino)4-cyanophenyl))urea] | inactive
2 | CC(C)(COCc1ccccc1)NC(=O)Nc1ccc([N+](=O)[O-])cc1O [Example 6, N-(1,1-Dimethyl-2-benzoxyethyl)-N'-(2-hydroxy-4-nitrophenyl)urea] | inactive
3 | O=C(O)CCNC(=O)Nc1ccc([N+](=O)[O-])cc1O [N-(2-carboxyethyl)-N'-(2-hydroxy-4-nitrophenyl)urea] | inactive
4 | CC(C)OCCNC(=O)Nc1ccc([N+](=O)[O-])cc1O [N-(ethylisopropylether)-N'-(2-hydroxy-4-nitro-phenyl)urea] | inactive
